{"source": "ChEMBL document CHEMBL5154884", "about": "“Discovery of a Novel Src Homology-2 Domain Containing Protein Tyrosine Phosphatase-2 (SHP2) and Cyclin-Dependent Kinase 4 (CDK4) Dual Inhibitor for the Treatment of Triple-Negative Breast Cancer” (J Med Chem, 2022)", "key": {"[1]": {"target": "T1, Tyrosine-protein phosphatase non-receptor type 11 (Homo sapiens, UniProt Q06124)", "T1 sequence (Q06124 whole entry)": "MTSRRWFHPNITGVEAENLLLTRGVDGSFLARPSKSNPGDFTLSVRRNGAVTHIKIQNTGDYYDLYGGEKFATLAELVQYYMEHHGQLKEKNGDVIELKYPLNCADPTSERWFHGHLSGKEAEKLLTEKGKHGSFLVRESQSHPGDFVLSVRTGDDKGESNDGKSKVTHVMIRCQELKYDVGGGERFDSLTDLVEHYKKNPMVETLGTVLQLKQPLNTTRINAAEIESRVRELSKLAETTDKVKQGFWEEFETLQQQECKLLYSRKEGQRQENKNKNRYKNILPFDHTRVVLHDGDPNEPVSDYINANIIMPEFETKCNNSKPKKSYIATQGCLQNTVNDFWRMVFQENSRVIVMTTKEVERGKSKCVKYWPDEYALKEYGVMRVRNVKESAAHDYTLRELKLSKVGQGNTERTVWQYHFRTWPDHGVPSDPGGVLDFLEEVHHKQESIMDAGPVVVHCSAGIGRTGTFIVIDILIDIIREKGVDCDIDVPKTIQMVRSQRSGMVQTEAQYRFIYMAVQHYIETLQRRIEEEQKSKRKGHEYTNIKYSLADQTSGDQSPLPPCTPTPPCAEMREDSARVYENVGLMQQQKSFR", "assay": "Inhibition of SHP2 (unknown origin) using DiFMUP as substrate incubated for 60 mins followed by substrate addition for 30 mins by microplate reader method"}, "[2]": {"test_system": "MDA-MB-468", "assay": "Antiproliferative activity against human MDA-MB-468 cells assessed as inhibition of cell growth incubated for 48 hrs by MTT assay", "format": "functional, cell-based", "conditions": "Homo sapiens, MDA-MB-468, 48 h"}, "[3]": {"assay": "Inhibition of recombinant N-terminal GST/His6-fusion tagged human CDK1/Cyclin B expressed in Sf9 insect cells incubated for 20 mins followed by [33P]gamma-ATP addition and measured after 2 hrs by radiometric HotSpot Kinase assay"}, "[4]": {"target": "CDK3/Cyclin E (Homo sapiens, UniProt Q00526)", "sequence (P24864 whole entry, the tested form may be a part)": "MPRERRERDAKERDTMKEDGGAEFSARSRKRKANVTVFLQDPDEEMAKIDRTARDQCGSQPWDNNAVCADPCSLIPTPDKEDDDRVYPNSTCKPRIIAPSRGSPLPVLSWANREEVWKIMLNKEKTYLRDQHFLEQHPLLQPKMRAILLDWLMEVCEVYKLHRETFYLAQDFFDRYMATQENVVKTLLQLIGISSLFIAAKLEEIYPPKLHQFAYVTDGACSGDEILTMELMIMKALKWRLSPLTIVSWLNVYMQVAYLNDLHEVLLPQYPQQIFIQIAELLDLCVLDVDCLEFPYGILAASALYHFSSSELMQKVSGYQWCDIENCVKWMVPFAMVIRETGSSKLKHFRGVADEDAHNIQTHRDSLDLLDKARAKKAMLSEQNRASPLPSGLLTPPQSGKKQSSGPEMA", "sequence (Q00526 whole entry, the tested form may be a part)": "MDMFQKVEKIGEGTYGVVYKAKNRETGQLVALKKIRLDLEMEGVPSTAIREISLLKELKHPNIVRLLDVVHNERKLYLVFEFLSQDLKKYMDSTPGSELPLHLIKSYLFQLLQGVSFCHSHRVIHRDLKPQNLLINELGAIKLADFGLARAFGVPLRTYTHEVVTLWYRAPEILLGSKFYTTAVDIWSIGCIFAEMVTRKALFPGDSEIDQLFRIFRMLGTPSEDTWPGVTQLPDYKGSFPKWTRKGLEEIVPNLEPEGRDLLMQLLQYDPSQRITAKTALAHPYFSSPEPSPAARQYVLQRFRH", "assay": "Inhibition of recombinant N-terminal GST/His6-fusion tagged human CDK3/Cyclin E expressed in Sf9 insect cells incubated for 20 mins followed by [33P]gamma-ATP addition and measured after 2 hrs by radiometric HotSpot Kinase assay"}, "[5]": {"target": "CDK4/Cyclin D3 (Homo sapiens, UniProt P11802)", "sequence (P11802 whole entry, the tested form may be a part)": "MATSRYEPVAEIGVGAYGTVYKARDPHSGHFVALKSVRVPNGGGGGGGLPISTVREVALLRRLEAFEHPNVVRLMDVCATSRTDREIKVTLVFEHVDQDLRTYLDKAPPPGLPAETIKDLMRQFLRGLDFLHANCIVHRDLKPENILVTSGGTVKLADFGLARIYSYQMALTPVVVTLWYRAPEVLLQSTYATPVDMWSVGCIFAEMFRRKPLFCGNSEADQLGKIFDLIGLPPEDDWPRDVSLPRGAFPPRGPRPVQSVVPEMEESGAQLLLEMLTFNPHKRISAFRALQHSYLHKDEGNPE", "sequence (P30281 whole entry, further chain, the tested form may be a part)": "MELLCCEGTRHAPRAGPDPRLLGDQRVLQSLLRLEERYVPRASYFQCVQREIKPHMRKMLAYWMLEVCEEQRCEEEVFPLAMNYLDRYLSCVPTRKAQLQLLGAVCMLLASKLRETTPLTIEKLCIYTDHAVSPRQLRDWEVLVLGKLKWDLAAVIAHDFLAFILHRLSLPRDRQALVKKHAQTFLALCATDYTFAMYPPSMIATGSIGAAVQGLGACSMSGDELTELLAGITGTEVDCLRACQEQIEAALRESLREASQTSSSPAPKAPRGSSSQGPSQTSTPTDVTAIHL", "assay": "Inhibition of recombinant N-terminal GST/His6-fusion tagged human CDK4/Cyclin D3 expressed in Sf9 insect cells incubated for 20 mins followed by [33P]gamma-ATP addition and measured after 2 hrs by radiometric HotSpot Kinase assay"}, "[6]": {"target": "Cyclin-dependent kinase 13/Cyclin-K (Homo sapiens, UniProt Q14004)", "sequence (Q14004 whole entry, the tested form may be a part)": "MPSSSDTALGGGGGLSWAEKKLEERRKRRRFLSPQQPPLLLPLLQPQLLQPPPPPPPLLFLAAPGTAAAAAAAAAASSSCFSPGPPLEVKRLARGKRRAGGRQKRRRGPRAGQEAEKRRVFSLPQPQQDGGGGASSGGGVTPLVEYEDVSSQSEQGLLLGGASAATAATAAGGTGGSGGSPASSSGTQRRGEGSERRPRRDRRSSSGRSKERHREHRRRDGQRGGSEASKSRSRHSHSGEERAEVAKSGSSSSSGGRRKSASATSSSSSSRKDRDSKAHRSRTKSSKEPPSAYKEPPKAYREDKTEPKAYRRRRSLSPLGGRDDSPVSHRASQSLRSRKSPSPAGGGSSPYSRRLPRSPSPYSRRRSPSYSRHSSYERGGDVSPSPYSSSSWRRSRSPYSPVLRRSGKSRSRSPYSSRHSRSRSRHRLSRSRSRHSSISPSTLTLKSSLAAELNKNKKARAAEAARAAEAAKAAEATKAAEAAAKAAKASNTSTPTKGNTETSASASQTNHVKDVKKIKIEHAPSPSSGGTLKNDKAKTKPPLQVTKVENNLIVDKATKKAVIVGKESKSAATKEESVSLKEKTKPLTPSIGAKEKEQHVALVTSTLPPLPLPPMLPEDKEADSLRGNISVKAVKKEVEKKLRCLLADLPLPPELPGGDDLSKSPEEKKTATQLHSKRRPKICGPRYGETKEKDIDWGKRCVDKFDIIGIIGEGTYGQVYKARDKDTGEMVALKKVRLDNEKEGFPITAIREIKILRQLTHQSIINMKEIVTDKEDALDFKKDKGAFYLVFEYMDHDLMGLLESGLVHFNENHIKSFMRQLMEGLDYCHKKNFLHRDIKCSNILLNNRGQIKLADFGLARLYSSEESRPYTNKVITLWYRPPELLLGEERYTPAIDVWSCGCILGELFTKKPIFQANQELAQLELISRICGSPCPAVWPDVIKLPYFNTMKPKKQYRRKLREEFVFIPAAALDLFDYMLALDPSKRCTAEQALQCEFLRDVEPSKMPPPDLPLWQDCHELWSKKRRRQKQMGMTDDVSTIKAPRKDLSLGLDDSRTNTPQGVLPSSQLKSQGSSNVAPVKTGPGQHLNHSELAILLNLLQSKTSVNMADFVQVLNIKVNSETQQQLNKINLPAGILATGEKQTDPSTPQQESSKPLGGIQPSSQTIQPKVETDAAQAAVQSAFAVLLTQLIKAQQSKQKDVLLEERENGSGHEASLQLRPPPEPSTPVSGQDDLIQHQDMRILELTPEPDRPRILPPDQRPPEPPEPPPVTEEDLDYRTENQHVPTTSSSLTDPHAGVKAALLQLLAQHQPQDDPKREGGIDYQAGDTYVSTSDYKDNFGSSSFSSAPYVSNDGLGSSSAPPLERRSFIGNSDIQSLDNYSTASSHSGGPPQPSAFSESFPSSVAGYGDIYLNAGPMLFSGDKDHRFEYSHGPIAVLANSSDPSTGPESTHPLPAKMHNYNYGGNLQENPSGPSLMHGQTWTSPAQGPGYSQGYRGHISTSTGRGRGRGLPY", "sequence (O75909 whole entry, further chain, the tested form may be a part)": "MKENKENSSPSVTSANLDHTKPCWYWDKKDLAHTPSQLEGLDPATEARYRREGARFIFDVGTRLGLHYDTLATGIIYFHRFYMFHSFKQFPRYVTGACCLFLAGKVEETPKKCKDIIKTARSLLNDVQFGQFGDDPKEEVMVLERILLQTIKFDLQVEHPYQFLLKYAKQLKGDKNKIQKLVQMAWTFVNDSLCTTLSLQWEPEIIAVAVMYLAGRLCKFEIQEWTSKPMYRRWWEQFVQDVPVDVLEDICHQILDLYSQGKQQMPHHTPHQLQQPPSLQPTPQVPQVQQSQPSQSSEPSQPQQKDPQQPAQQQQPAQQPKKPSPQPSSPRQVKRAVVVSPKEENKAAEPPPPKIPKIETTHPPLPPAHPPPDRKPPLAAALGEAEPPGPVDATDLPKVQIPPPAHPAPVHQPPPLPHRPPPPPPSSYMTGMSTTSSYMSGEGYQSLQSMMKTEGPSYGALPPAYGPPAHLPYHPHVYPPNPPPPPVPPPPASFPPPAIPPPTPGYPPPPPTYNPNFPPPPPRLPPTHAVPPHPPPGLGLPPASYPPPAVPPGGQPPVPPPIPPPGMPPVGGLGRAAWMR", "assay": "Inhibition of recombinant N-terminal GST/His6-fusion tagged human CDK13/Cyclin K expressed in Sf9 insect cells incubated for 20 mins followed by [33P]gamma-ATP addition and measured after 2 hrs by radiometric HotSpot Kinase assay"}, "[7]": {"test_system": "MDA-MB-231", "assay": "Induction of cell cycle arrest in human MDA-MB-231 cells assessed as accumulation of cells in G2/M phase at 3 uM incubated for 48 hrs by RNase/propidium iodide staining based flow cytometry analysis (reference value: 2.7%)", "format": "functional"}, "[8]": {"test_system": "MDA-MB-231", "assay": "Induction of apoptosis in human MDA-MB-231 cells assessed as late apoptotic cells at 3 uM measured after 48 hrs by Annexin V-FITC/PI staining based flow cytometric analysis (reference value: 1.06%)", "format": "functional"}, "[9]": {"test_system": "MDA-MB-231", "assay": "Induction of apoptosis in human MDA-MB-231 cells assessed as early apoptotic cells at 3 uM measured after 48 hrs by Annexin V-FITC/PI staining based flow cytometric analysis (reference value: 0.32%)", "format": "functional"}, "[10]": {"test_system": "MDA-MB-231", "assay": "Induction of apoptosis in human MDA-MB-231 cells assessed as viable cells at 3 uM measured after 48 hrs by Annexin V-FITC/PI staining based flow cytometric analysis (reference value: 98.04%)", "format": "functional", "conditions": "read-out: Activity"}, "[11]": {"test_system": "MDA-MB-231", "assay": "Induction of apoptosis in human MDA-MB-231 cells assessed as late apoptotic cells at 1 uM measured after 48 hrs by Annexin V-FITC/PI staining based flow cytometric analysis (reference value: 1.06%)", "format": "functional"}, "[12]": {"test_system": "MDA-MB-231", "assay": "Induction of apoptosis in human MDA-MB-231 cells assessed as early apoptotic cells at 1 uM measured after 48 hrs by Annexin V-FITC/PI staining based flow cytometric analysis (reference value: 0.32%)", "format": "functional"}, "[13]": {"assay": "AUC in ICR mouse at 1 mg/kg, iv measured upto 24 hrs by LC-MS/MS analysis", "format": "ADME, organism-based", "parameters": "time < 24 hrs, dose 1 mg/kg, route iv", "conditions": "in vivo"}, "[14]": {"assay": "AUC in ICR mouse at 10 mg/kg, po measured upto 24 hrs by LC-MS/MS analysis", "format": "ADME, organism-based", "parameters": "time < 24 hrs, dose 10 mg/kg, route po", "conditions": "in vivo"}, "[15]": {"assay": "Terminal half life in ICR mouse at 1 mg/kg, iv measured upto 24 hrs by LC-MS/MS analysis", "format": "ADME, organism-based", "conditions": "in vivo, read-out: beta t1/2 (converted)"}, "[16]": {"assay": "Clearance in ICR mouse at 1 mg/kg, iv measured upto 24 hrs by LC-MS/MS analysis", "format": "ADME, organism-based", "conditions": "in vivo"}, "[17]": {"assay": "Volume of distribution in ICR mouse at 1 mg/kg, iv measured upto 24 hrs by LC-MS/MS analysis", "format": "ADME, organism-based", "conditions": "in vivo"}, "[18]": {"assay": "Cmax in ICR mouse at 10 mg/kg, po measured upto 24 hrs by LC-MS/MS analysis", "format": "ADME, organism-based", "parameters": "time < 24 hrs, dose 10 mg/kg, route po", "conditions": "in vivo"}, "[19]": {"assay": "Oral bioavailability in ICR mouse at 10 mg/kg measured upto 24 hrs by LC-MS/MS analysis", "format": "ADME, organism-based", "conditions": "in vivo"}, "[20]": {"assay": "Toxicity in BALB/c nude mouse implanted with mouse EMT6 cells assessed as body weight loss at 40 mg/kg, po qd and measured every 2 days for 18 days", "format": "organism-based", "conditions": "in vivo, 432 h, time 18 day"}, "[21]": {"assay": "Toxicity in BALB/c nude mouse implanted with mouse EMT6 cells assessed as mortality at 40 mg/kg, po qd and measured every 2 days for 18 days", "format": "organism-based", "conditions": "in vivo, 432 h, time 18 day"}, "[22]": {"test_system": "EMT6", "assay": "Antitumor activity against mouse EMT6 cells implanted in BALB/c mouse syngenic model assessed as downregulation of Ki67 level in tumor at 20 to 40 mg/kg, po qd measured after 18 days by immunohistochemical analysis", "format": "functional, organism-based", "conditions": "dose 20-40 mg/kg, time 18.0 day"}, "[23]": {"test_system": "EMT6", "assay": "Antitumor activity against mouse EMT6 cells implanted in BALB/c mouse syngenic model assessed as downregulation of Ki67 level in tumor at 20 mg/kg, po bid measured after 18 days by immunohistochemical analysis", "format": "functional, organism-based", "conditions": "time 18.0 day"}, "[24]": {"test_system": "EMT6", "assay": "Antitumor activity against mouse EMT6 cells implanted in BALB/c mouse syngenic model assessed as downregulation of pERK level in tumor at 20 mg/kg, po bid measured after 18 days by immunohistochemical analysis", "format": "functional, organism-based", "conditions": "time 18.0 day"}, "[25]": {"test_system": "EMT6", "assay": "Antitumor activity against mouse EMT6 cells implanted in BALB/c mouse syngenic model assessed as downregulation of p-retinoblastoma level in tumor at 20 to 40 mg/kg, po qd measured after 18 days by immunohistochemical analysis", "format": "functional, organism-based", "conditions": "dose 20-40 mg/kg, time 18.0 day"}, "[26]": {"test_system": "EMT6", "assay": "Antitumor activity against mouse EMT6 cells implanted in BALB/c mouse syngenic model assessed as increase in infiltration of CD8 positive T cells into tumors at 20 to 40 mg/kg, po qd measured after 18 days by immunohistochemical analysis", "format": "functional, organism-based", "conditions": "dose 20-40 mg/kg, time 18.0 day"}}, "note": "Active and inactive are the calls of the source. The calls are words filed in the database; no cut-off is given here."}
{"smiles": "Cc1nc2c(F)cc(-c3nc(Nc4nccc(Sc5cnc(N6CCC7(CC6)CO[C@@H](C)[C@H]7N)cn5)c4Cl)ncc3F)cc2n1C(C)C", "values": [{"measurement": "IC50", "setting": "[1]", "result": 4.3, "unit": "nM"}, {"measurement": "IC50", "setting": "[2]", "result": 1760, "unit": "nM"}, {"measurement": "IC50", "setting": "[3]", "result": 210, "unit": "nM"}, {"measurement": "IC50", "setting": "[4]", "result": "> 1000", "unit": "nM"}, {"measurement": "IC50", "setting": "[5]", "result": 18.2, "unit": "nM"}, {"measurement": "IC50", "setting": "[6]", "result": "> 1000", "unit": "nM"}, {"measurement": "Activity", "setting": "[7]", "result": 1.5, "unit": "%"}, {"measurement": "Activity", "setting": "[8]", "result": 7.25, "unit": "%"}, {"measurement": "Activity", "setting": "[9]", "result": 9.46, "unit": "%"}, {"measurement": "viability at 3 µM", "setting": "[10]", "result": 82, "unit": "%"}, {"measurement": "Activity", "setting": "[11]", "result": 5.24, "unit": "%"}, {"measurement": "Activity", "setting": "[12]", "result": 7.29, "unit": "%"}, {"measurement": "AUC at 24 h", "setting": "[13]", "result": 1200, "unit": "ng·h/mL"}, {"measurement": "AUC at 24 h", "setting": "[14]", "result": 5510, "unit": "ng·h/mL"}, {"measurement": "half-life", "setting": "[15]", "result": 2.11, "unit": "h"}, {"measurement": "clearance", "setting": "[16]", "result": 13.9, "unit": "mL/min/kg"}, {"measurement": "Vd", "setting": "[17]", "result": 2.53, "unit": "L/kg"}, {"measurement": "Cmax", "setting": "[18]", "result": 634, "unit": "ng/mL"}, {"measurement": "bioavailability", "setting": "[19]", "result": 45.8, "unit": "%"}, {"measurement": "Activity", "setting": "[20]", "result": "Non-Toxic"}, {"measurement": "Activity", "setting": "[21]", "result": "Non-Toxic"}, {"measurement": "Activity", "setting": "[22]", "result": "Active"}, {"measurement": "Activity", "setting": "[23]", "result": "Active"}, {"measurement": "Activity", "setting": "[24]", "result": "Active"}, {"measurement": "Activity", "setting": "[25]", "result": "Active"}, {"measurement": "Activity", "setting": "[26]", "result": "Active"}]}
